Measured values taken from patent publication US12064420B2, “Tie-2 activators targeting the Schlemm's canal” (EyePoint Pharmaceuticals, Inc., priority 2019, dated 2024).

Legend:
mouse eyes = experiment: Outflow facility in enucleated mouse eyes (iPerfusion); assay type: in vivo
Procedure: An iPerfusion system was used to measure outflow facility in mice. The system is designed to measure outflow facility in paired mouse eyes having low flow rates (nL/min). Outflow facility is a measure of the ability of aqueous humor to flow from the trabecular meshwork to maintain a steady state TOP.
After three days of treatment with either Compound 1 or placebo, eyes were enucleated, and outflow facility was measured in a masked fashion. Briefly, mice were euthanized using isoflurane and freshly enucleated, paired mouse eyes were mounted on two stabilization platforms in temperature-controlled perfusion chambers by using a small amount of cyanoacrylate glue. […]
Both eyes of the mice were perfused at 9 mmHg for 45-60 min to allow acclimatization and to deliver the drug or vehicle to the outflow pathway, followed by 9 sequential pressure steps of 4.5, 6, 7.5, 9, 10.5, 12, 15, 18, and 21 mmHg. The outflow from the eye was measured at multiple pressures to calculate the outflow facility.
A non-linear flow-pressure model was used to account for the pressure dependence of outflow facility in mice. The reference facility was analyzed at a reference pressure of 8 mmHg, which approximates the physiological pressure drop across the conventional outflow pathway in living mice. […]

[1] = tested on: New Zealand White rabbits; experiment: Local tolerance in rabbits (slit lamp biomicroscopy, McDonald-Shadduck scoring); assay type: in vivo, rabbit; settings: slit lamp biomicroscopy during the study
C57B16 mice = experiment: Schlemm's canal area in mice (PECAM-1 staining); assay type: in vivo, mouse; settings: 4% eye drops (5 μL) BID for 4 weeks, 4-week old mice
Procedure: Prior to application of eye drops, mice were anaesthetized using an isoflurane evaporator. Whole mounts of corneas were stained for PECAM-1 (FIG. 6A) and SC areas were measured (FIG. 6B). As depicted in FIG. 6A, 20× fields shown represent an area of […]. Images were captured as Z stacks with a step size of 0.89 μm and a pinhole of 1 airy unit, and are shown as maximum intensity projections. For quantification (FIG. 6B), SC area was measured in sixteen 20× images per condition for 4 eyes of 2 mice; *p≤0.05. Treatment with Compound 1 enhanced SC area by about 12.2% (±4.7%; p=0.022) with topical ocular Compound 1 treatment compared to vehicle.

[2] = tested on: patients with moderate to severe non-proliferative diabetic retinopathy; experiment: Phase 2 48-week trial: IOP after subcutaneous Compound 1 QD or BID, non-proliferative diabetic retinopathy; assay type: in vivo, human; settings: for mean reduction in IOP compared to placebo: MMRM ANCOVA; for Week 12 IOP change from BL, mean (SD) / Week 12 IOP, mean (SD) / Week 36 IOP change from BL, mean (SD) / Week 36 IOP, mean (SD) / Week 48 IOP change from BL, mean (SD) / Week 48 IOP, mean (SD) / Week 24 IOP change from BL, mean (SD) / Week 24 IOP, mean (SD): averaged over both eyes; for Week 24 IOP change from BL, mean (SD) / Week 24 IOP, mean (SD): measured predose
From the text: Eligible subjects were aged 18 to 80 years with moderate to severe NPDR. The major inclusion criteria for the qualified eyes included Early Treatment Diabetic Retinopathy Study (ETDRS) Severity Score≥43 and ≤53, no evidence of central involved diabetic macular edema (DME) and ETDRS≥70 letters using the ETDRS visual acuity charts. Study eye ocular exclusion criteria included uncontrolled glaucoma defined as IOP≥30 mm Hg on maximum IOP reduction therapy. Subjects were randomized 1:1:1 to either Compound 1, 15 mg once daily (QD), Compound 1, 15 mg twice daily (BID), or placebo BID treatment groups. Subjects self-administered the masked study medication (Compound 1 or placebo) supplied as sterile pre-filled single-use syringes. Subjects visited the clinical site monthly during the 48-week treatment period. A battery of comprehensive ophthalmic evaluations including IOP assessments were conducted every 12-weeks with either applanation tonometry or Tono-Pen® and the methodology was consistent throughout the study. On Day 1 and Week 24, IOP was measured prior to dosing. IOP data were analyzed using a mixed-model repeated measures ANCOVA, with visit as the repeated measure within subject. The model included change from baseline as the dependent variable. The p-value from the model was adjusted by baseline IOP. 167 patients with moderate to severe non-proliferative diabetic retinopathy (NPDR) without diabetic macular edema (DME) and a visual acuity of 20/40 or better were enrolled in a 48-week study of the effect of Compound 1 (sodium salt) in the treatment of NPDR. The IOP was measured at baseline, and at weeks 12, 24, 36, and 48. The trial consisted of three study arms: 1) patients receiving 15 mg of Compound 1 subcutaneously BID; 2) patients receiving placebo subcutaneously QD, and 15 mg of Compound 1 subcutaneously QD; and 3) patients receiving a placebo subcutaneously BID.

COC(=O)N[C@@H](Cc1ccccc1)C(=O)N[C@@H](Cc1ccc(NS(=O)(=O)O)cc1)c1csc(-c2cccs2)n1 [Compound 1, 4-{(S)-2-[(S)-2-(Methoxycarbonylamino)-3-phenylpropanamido]-2-[2-(thiophen-2-yl)thiazol-4-yl]ethyl}phenylsulfamic acid]
outflow facility (mouse eyes; eyes dosed three days QD with 4% Compound 1, perfused with 10 μM, reference pressure 8 mmHg): 3.4±0.4 nL/min/mmHg
increase of outflow facility compared to control (mouse eyes; versus placebo-treated contralateral eyes): 33%
adverse effects on local tolerance [1]: No adverse effects
enhancement of Schlemm's canal area compared to vehicle (C57B16 mice): about 12.2%
mean reduction in IOP compared to placebo ([2]; 15 mg SC BID): 1.15 mmHg
Week 12 IOP change from BL, mean (SD) ([2]; 15 mg SC BID): −0.91 (3.20) mmHg
Week 12 IOP, mean (SD) ([2]; 15 mg SC BID): 14.6 (2.93) mmHg
Week 36 IOP change from BL, mean (SD) ([2]; 15 mg SC BID): −1.48 (3.48) mmHg
Week 36 IOP, mean (SD) ([2]; 15 mg SC BID): 14.0 (2.74) mmHg
Week 48 IOP change from BL, mean (SD) ([2]; 15 mg SC BID): −0.94 (3.00) mmHg
Week 48 IOP, mean (SD) ([2]; 15 mg SC BID): 14.6 (2.73) mmHg
Week 24 IOP change from BL, mean (SD) ([2]; 15 mg SC BID): −1.27 (3.31) mmHg
Week 24 IOP, mean (SD) ([2]; 15 mg SC BID): 14.2 (2.60) mmHg
mean reduction in IOP compared to placebo ([2]; 15 mg SC QD): 0.70 mmHg
Week 12 IOP change from BL, mean (SD) ([2]; 15 mg SC QD): −0.56 (2.83) mmHg
Week 12 IOP, mean (SD) ([2]; 15 mg SC QD): 15.3 (2.75) mmHg
Week 36 IOP change from BL, mean (SD) ([2]; 15 mg SC QD): −0.94 (3.39) mmHg
Week 36 IOP, mean (SD) ([2]; 15 mg SC QD): 14.9 (3.58) mmHg
Week 48 IOP change from BL, mean (SD) ([2]; 15 mg SC QD): −0.72 (2.80) mmHg
Week 48 IOP, mean (SD) ([2]; 15 mg SC QD): 15.2 (2.84) mmHg
Week 24 IOP change from BL, mean (SD) ([2]; 15 mg SC QD): −0.56 (2.99) mmHg
Week 24 IOP, mean (SD) ([2]; 15 mg SC QD): 15.3 (2.90) mmHg
